Experimental data taken from patent US20120083522A1, “MODULATION OF INFLAMMATORY RESPONSES BY FACTOR XI” (Isis Pharmaceuitcals, inc., priority 2009, published 2012).
In the oligonucleotide strings, read from the 5' end, every base follows the letter of its sugar. An asterisk marks phosphorothioate; unmarked linkages are phosphodiester. Other units and linkages are bracketed, terminal groups are in braces. A string of capitals states the bases alone. e = 2'-O-(2-methoxyethyl) (MOE); [5mC] = 5-methylcytosine; d = 2'-deoxy (DNA)

What was measured:
[1] = system: IL-1β, IL-6, IFN-γ, TNF-α, IL-8, MIP-1α, MCP-1, MIP-10, RANTES; experiment: Cynomolgus monkeys: cytokine and chemokine assays (Example 30); type: in vivo
Procedure, shortened: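 Sampling at day −14 and at necropsy on day 55 gave blood for cytokine and chemokine levels, read with primate antibodies for IL-1β, IL-6, IFN-γ and TNF-α and human cross-reacting antibodies for the rest. Dosing: subcutaneous 25 mg/kg, 3×/week week 1, 2×/week weeks 2–8; PBS control; 2 males + 2 females per group.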

[2] = system: OVA/alum-induced asthma model; experiment: OVA-induced asthma model: BAL eosinophil recruitment (Example 13); type: in vivo, BALB/c mice
Protocol: The effect of antisense oligonucleotide inhibition of Factor XI and its role in ameliorating asthma was evaluated in an OVA/alum-induced asthma model. Administration of ovalbumin to animals is a well known method to induce […] and has been previously described by Henderson et al. (J. Exp. Med., 1996, 184: 1483-1494).
The mice were divided into four treatment groups of 5 mice each. One group received subcutaneous injections of ISIS 404071 at a dose of 50 mg/kg twice a week for 4 weeks. One group of mice received subcutaneous injections of control oligonucleotide, ISIS 421208, which is a mismatch oligonucleotide sequence of ISIS 404071, at a dose of 50 mg/kg twice a week for 4 weeks. Two groups of mice received subcutaneous injections of PBS twice a week for 4 weeks. One PBS group remained untreated and served as the control group. The second PBS group and both the oligonucleotide treated groups were injected with OVA/alum on days 0 and 14 and nebulized with OVA in PBS on days 24, 25, and 26. The first OVA application served to sensitize the mice against OVA while the second was a challenge application to provoke an asthmatic reaction. Two days following the final dose, the mice were euthanized, bronchial lavage (BAL) was collected and analyses done.
Bronchial asthma, even in its mild form, is characterized by local infiltration and activation of inflammatory and immunoeffector cells, including T lymphocytes, macrophages, eosinophils, and mast cells (Smith D. L. et al., Am. Rev. Respir. Dis. 1993. 148: 523-532). The effect of treatment with ISIS 404071 on bronchoalveolar lavage (BAL) eosinophil recruitment was assessed. BAL cells were stained with hemotoxylin and eosin (H&E). The results are presented in Table 49 as a percentage of total cells in BAL.

[3] = system: murine Factor XI mRNA; experiment: Colitis Study B: Factor XI mRNA in the liver; type: in vivo, Swiss Webb mice; conditions: DSS-induced colitis, day 7, 20 mg/kg s.c. twice a week for 3 weeks, percent change compared to the PBS control
Protocol: In a first group of 8 Swiss Webb mice, 20 mg/kg of ISIS 404071 was injected subcutaneously twice a week for 3 weeks. In a second group of 8 Swiss Webb mice, 20 mg/kg of ISIS 404057 was subcutaneously injected twice a week for 3 weeks. In a third control group of 8 Swiss Webb mice, 20 mg/kg of ISISI 421208 was injected subcutaneously twice a week for 3 weeks. Two control groups of 8 mice each were injected with PBS twice a week for 3 weeks. After the oligonucleotide treatment, 4% DSS in water was administered ad libitum for 6 days to all the experimental groups and one PBS control group.
Mice in all groups were weighed at day 0 and daily after administration of DSS. Mice were sacrificed at the end of the study on day 7 after DSS was administered, their livers and colons were harvested for RNA analysis, and their body weights and colon lengths were measured.
RT-PCR analysis of Factor XI mRNA was performed. As presented in Table 27 and FIG. 10, antisense oligonucleotides targeting Factor XI achieved statistically significant dose-dependent reduction of murine Factor XI over the PBS control in the liver. All the measurements are normalized to cyclophilin.
All the results in Table 27 are expressed as percent change compared to the PBS control.

[4] = Arthritis Study B: liver and spleen weight, ALT, AST; type: in vivo; conditions: collagen-treated DBA/1J mice, 20 mg/kg s.c. twice a week for ten weeks
Protocol: In a group of 20 DBA/1J mice, 20 mg/kg of ISIS 404071 were injected subcutaneously twice a week for ten weeks. In a second group of 20 DBA/1J mice, 20 mg/kg of ISIS 404057 were injected subcutaneously twice a week for ten weeks. In a third control group of 20 DBA/1J mice, 20 mg/kg of ISIS 421208 were injected subcutaneously twice a week for ten weeks. Two control groups of 20 mice each were injected with PBS twice a week for ten weeks.
Mice in all groups were examined daily after day 30 after the first collagen injection for the visual appearance of arthritis in peripheral joints. The results in Table 22 are expressed as percent change compared to the PBS control except for the liver and spleen weight.

[5] = system: DSS-induced colitis model; experiment: Colitis Study E: weight change, colon length, stool analysis; type: in vivo, Swiss Webb mice; conditions: for Colon length / Weight change / Diarrhea score: DSS-treated mice; for Colon length / Weight change: 40 mpk; for Diarrhea score: day 7, 40 mpk
Protocol: Two groups 8 Swiss Webb mice were dosed with 40 mg/kg of ISIS 404071 injected subcutaneously twice a week for 3 weeks. Two control groups of 8 Swiss Webb mice were dosed with PBS subcutaneously twice a week for 3 weeks. Both the ASO treated groups and one of the control groups were then given 4% DSS in distilled water for 7 days ad libitum. One of the ASO and DSS treated groups was also given intravenous injections of 20 μg of recombinant human Factor XI protein (Haematologic Technologies Inc.) for 7 consecutive days, starting the day before DSS treatment. Mice were sacrificed at the end of the study on day 7 after DSS was administered.
Mice in all groups were weighed at day 0 and at the end of the study. […] Mice were sacrificed at the end of the study on day 7 after DSS was administered and their colon lengths were measured.

[6] = day −14 (before start of treatment)
[7] = plus human recombinant FXI 20 ug/mouse/day

Substance | IL-1β level ([1]; 25 mg/kg s.c., day 55) | MIP-1β level ([1]; 25 mg/kg s.c., day 55) | IL-1β level [1, 6] | MIP-1β level [1, 6] | BAL eosinophil recruitment (in words) [2] | Eosinophils ([2]; percentage of total cells in BAL, 50 mg/kg s.c. twice a week for 4 weeks) | Liver Factor XI mRNA [3] | Liver ALT [4] | Liver AST [4] | Liver Weight as a % of Body Weight [4] | Spleen Weight as a % of Body Weight [4] | colon length (in words) ([5]; Colitis Study E, day 7) | stool softness/diarrhea (in words) ([5]; Colitis Study E, day 7) | Colon length ([5]; no human recombinant FXI) | Weight change ([5]; no human recombinant FXI) | Colon length [5, 7] | Weight change [5, 7] | Diarrhea score ([5]; no human recombinant FXI) | Diarrhea score [5, 7]
ISIS 416850: gapmer of Table 8 (antisense eT*eG*e[5mC]*eA*e[5mC]*dA*dG*dT*dT*dT*d[5mC]*dT*dG*dG*d[5mC]*eA*eG*eG*e[5mC]*e[5mC]) | 106 pg/mL | 50 pg/mL | 215 pg/mL | 31 pg/mL |  |  |  |  |  |  |  |  |  |  |  |  |  |  | 
TGGTAATCCACTTTCAGAGG (eT*eG*eG*eT*eA*dA*dT*d[5mC]*d[5mC]*dA*d[5mC]*dT*dT*dT*d[5mC]*eA*eG*eA*eG*eG) [ISIS 404071, 5-10-5 MOE gapmer targeting murine Factor XI, target start site 869] |  |  |  |  | decreased the eosinophil recruitment | 32% | −75% | 56.6 | 86.75 | 6.089% | 0.759 % of Body Weight | increase in colon length | amelioration of diarrhea | 9.9 cm | +1.8% | 7.3 cm | +0.3% | 0.5 | 2.0
